Data taken from patent US20180112193A1, “CSF1 THERAPEUTICS” (University Court Of The University Of Edinburgh, priority 2013, published 2018).

Tests used:
male C57BI6 mice [1] = experiment: 2/3 partial hepatectomy in mice; type: in vivo, mouse
Experimental: Forty-eight male C57BI6 mice aged 10-12 weeks underwent either 2/3 partial hepatectomy, paracetamol intoxication or chronic liver injury plus 2/3 partial hepatectomy. 2/3 partial hepatectomy was performed by ligating the left lobe and left and right median lobes. Paracetamol intoxication was performed by intraperitoneal administration of 350 mg/kg paracetamol dissolved in phosphate buffered saline (PBS). Chronic liver injury plus 2/3 partial hepatectomy was performed by eight weeks intraperitoneal carbon tetrachloride administration 1 mcl/g twice weekly dissolved in olive oil followed by ⅔ partial hepatectomy as described above. […] Control mice (n=8 per injury model) received subcutaneous PBS of appropriate volume. […]
Following a midline laparotomy the liver was excised and weighed. Liver weight to body weight ratio was calculated and expressed as a percentage. Livers were fixed in 4% formalin overnight then transferred to 70% ethanol. Livers were then embedded in paraffin blocks and 4 μm sections cut. Immunohistochemistry for Ki67 (a marker of cellular proliferation expressed throughout the cell cycle) was performed following heat mediated antigen retrieval in Tris/EDTA solution at pH9. Hepatocyte proliferation was quantified by counting ki67 positive hepatocytes in 20 high powered fields (400×) per animal and the mean calculated. […]

male C57BI6 mice [2] = experiment: Paracetamol intoxication in mice; type: in vivo, mouse; conditions: CSF1 receptor blockade, 180 mg/kg via gavage; Day 3 post injury
Experimental: Forty-eight male C57BI6 mice aged 10-12 weeks underwent either 2/3 partial hepatectomy, paracetamol intoxication or chronic liver injury plus 2/3 partial hepatectomy. 2/3 partial hepatectomy was performed by ligating the left lobe and left and right median lobes. Paracetamol intoxication was performed by intraperitoneal administration of 350 mg/kg paracetamol dissolved in phosphate buffered saline (PBS). Chronic liver injury plus 2/3 partial hepatectomy was performed by eight weeks intraperitoneal carbon tetrachloride administration 1 mcl/g twice weekly dissolved in olive oil followed by ⅔ partial hepatectomy as described above. […] Control mice (n=8 per injury model) received subcutaneous PBS of appropriate volume. All mice were culled on day 4 following injury (partial hepatectomy or paracetamol intoxication).
Following a midline laparotomy the liver was excised and weighed. Liver weight to body weight ratio was calculated and expressed as a percentage. Livers were fixed in 4% formalin overnight then transferred to 70% ethanol. Livers were then embedded in paraffin blocks and 4 μm sections cut. Immunohistochemistry for Ki67 (a marker of cellular proliferation expressed throughout the cell cycle) was performed following heat mediated antigen retrieval in Tris/EDTA solution at pH9. Hepatocyte proliferation was quantified by counting ki67 positive hepatocytes in 20 high powered fields (400×) per animal and the mean calculated.
Hepatic CSF1 gene expression was assessed in mice following paracetamol intoxication (350 mg/kg paracetamol IP following overnight fast) at time points up to 4 days, showing peak CSF1 gene expression at day 2 (FIG. 14A).

[3] = tested on: csf1r-EGFP (MacGreen) mice; experiment: Fc-CSF-1 injected subcutaneously into csf1r-EGFP mice on 4 days, sacrificed on the 5th day; type: in vivo, mouse; conditions: 1 mg/kg
Experimental: Mice were injected with Fc-CSF-1 subcutaneously on each of 4 days and sacrificed on the 5th day. The mice were csf1r-EGFP (MacGreen) mice on the C57BI/6 background. Tissue processing and immunohistochemistry were carried out as described in (Alikhan et al Am J. Pathol. 179, 1243-1256, 2011 and Macdonald et al Blood. 116, 3955-3963, 2010). A comparison of the effect of recombinant pig CSF-1 or Fc-CSF-1 on the proliferation of mouse bone marrow cells or the Ba/F3 CS1R reporter cell line using the assay described in Gow et al Cytokine.

Pig PK (plasma ELISA) = type: in vivo; conditions: weaner pigs; 0.5 mg/kg SC
Experimental: Porcine CSF-1 Fc-fusion plasma levels were detected using an in-house developed conventional sandwich ELISA utilizing commercially available antibodies. Capture antibody was Abcam ab9693 (0.3 μg/mL) and detection antibody was Rabbit anti-pig IgG (Fc) biotinylated Alpha Diagnostic 90440 (1:5000 dilution). Standard protein was generated and purified in-house (lot 2/24/11 JAS). Standards were added to each plate along with the samples resulting in an 11 point standard range of 2700 ng/mL to […]. This allowed for quantitation of each sample to a standard curve on every assay plate. Assay detection was done using Pierce High Sensitivity Streptavidin-HRP (1:10,000 dilution) and TMB Microwell Peroxidase Substrate System solution (KPL).
Weaner age barrows (<14 kg) were assigned to three treatment groups receiving a single intravenous (IV) or subcutaneous (SC) dose as follows. Three pigs received 0.5 mg/kg CSF-1 non-fusion dosed SC. Two pigs received 1.2 mg/kg CSF-1:Fc fusion dosed IV. Two pigs received 1.2 mg/kg CSF-1:Fc dosed SC. One ml plasma samples were obtained via the V. jugularis in EDTA anticoagulant tubes and placed on ice until centrifuged. The plasma was transferred to sterile tubes stored at ≤−10° C. until analysis. Serial plasma samples were obtained from each animal at pre-dose and 5 minutes, 30 minutes, 1 hour, 2 hours, 4 hours, 6 hours, 8, hours, 24 hours, 48 hours, and 72 hours post-dose. CSF-1 and CSF-1:Fc fusion protein levels were quantitated in plasma using ELISA assays.

[4] = day 2 following partial hepatectomy, vs controls

## COc1ccc(COc2ccc(Cc3cnc(N)nc3N)cc2OC)cc1 [GW2580, reference compound]
Male C57BI6 mice [1]; CSF1 receptor blockade, 180 mg/kg via gavage
  serum ALT (marker of liver injury): raised
Male C57BI6 mice [1]; CSF1 receptor blockade, 180 mg/kg via gavage, Day 3
  hepatocyte proliferation: markedly impaired
Male C57BI6 mice [1]; [4]
  gene expression of oncostatin M (OSM): significant reduction
  gene expression of pro-regenerative cytokine 116: significant reduction
Male C57BI6 mice [1]; following partial hepatectomy, vs controls
  urokinase receptor (UR) expression: reduction
Male C57BI6 mice [2]
  hepatocyte proliferation: impaired
  liver weight to body weight ratio: reduced
  serum ALT (marker of liver injury): raised

B1: CSF-1: unmodified recombinant pig CSF-1 protein, non-fusion comparator (protein)
chain: SENCSHMIGDGHLKVLQQLIDSQMETSCQIAFEFVDQEQLTDPVCYLKKAFLQVQDILDETMRFRDNTPNANVIVQLQELSLRLNSCFTKDYEEQDKACVRTFYETPLQLLEKIKNVFNETKNLLKKDWNIFSKNCNNSFAKCSSQDVVTKPDCN
[3]
  total body weight: no effect
Pig PK (plasma ELISA)
  peak plasma level: around 100 ng/ml
  time by which completely cleared from plasma: ≤ 20 h
